Values after ≈ are worked out from the molar mass of the structure shown. Where two headings read alike, the source gives them in different places.
Experiments:
[1] = test system: C. elegans L1 and L4 larvae; assay: In vitro nematicidal efficacy of methylketones on C. elegans larvae; format: cell-based; conditions: Caenorhabditis elegans
Method: (§1) The example illustrates the surprising nematicidal efficacy of various methylketones. Methylketones of various chain lengths were tested in vitro against C. elegans L1 and L4 larvae and M. incognita pre-parasitic J2 larvae, the dispersal larval stage found in the soil. […] IC30 is defined as the concentration of the methylketone at which 30 percent of the nematodes are killed after an exposure of 4 hours for C. elegans and 24 hours for M. incognita.

[2] = test system: M. incognita pre-parasitic J2 larvae; assay: In vitro nematicidal efficacy of methylketones on M. incognita J2 larvae; format: cell-based; conditions: Meloidogyne incognita, read-out: IC30 M. incognita vs. J2
Method: as §1

[3] = test system: root knot nematode (M. incognita); assay: Greenhouse whole plant assay, root knot nematode infection of tomato in sand; format: in vivo; conditions: for nematode control (in words): M. incognita, greenhouse, 40 and 8 kg/ha; for % Control: control of nematode-induced galling; for % Galled Roots: soil application before inoculation, harvest 21 days, no compound added: 60
Method: (§2) Whole plant assays were used to determine the efficacy of the methylketones on the infection of soybean plants and tomato plants by nematodes, H. glycines and M. incognita, respectively. The seeds were planted in 100 percent sand in two-inch square plastic pots and grown to a sufficient size for treatment. […] Following methylketone treatment, nematodes were inoculated into each pot and for soybeans are then incubated for 28 days before harvest and for tomatoes incubated 21 days before harvest.
(§3) To each of four pots, five milliliters of the appropriate chemical solution is applied to the surface making sure to avoid contact with the base of the plant. Immediately following the chemical application, the pot surface is wetted sufficiently to water in the chemical. One milligram of chemical per four pots is approximately equivalent to one kilogram per hectare of chemical. A standard test uses four replications. For rates above 2 kg/ha, the desired amount of chemical is weighed into a 30 ml vial (example: 8 kg/ha rate=8 mg chemical in 30 ml vial). The chemical is dissolved in 2 ml of an appropriate solvent, generally acetone. For rates below 2 kg/ha, 2 milligrams of chemistry is weighed into the vial and dissolved in 2 ml of the solvent. The appropriate amount of chemical concentrate is then applied into a separate 30 ml vial and solvent is added to bring the volume to 2 ml (example 0.5 kg/ha=0.5 ml of concentrate+1.5 ml solvent). Each dissolved concentrate is then brought to a total of 20 milliliters using 0.05% Triton X-100 surfactant solution.
(§4) Nematode eggs, either SCN or RKN, are added to distilled water to create a concentration of 1000 vermiform eggs per […] of water. At least four hours after chemical treatment the eggs are applied to the treated pots plus non-treated check plants. A small hole about 1 cm deep is punched into the pot surface. One milliliter of the nematode egg slurry is applied into the hole. Immediately afterwards the hole is gently covered. Watering of the test plants is then restricted to a minimum volume needed to prevent wilting for a period of 24 hours. After the 24 hour restricted watering, normal sub-irrigation watering is done for the duration of the test.
The 2-undecanone, 2-tridecanone, and 2-pentadecanone are tested in greenhouse studies against M. incognita infection of tomato roots in sand. […] Shown in Table 2 is a high level of nematicidal activity of various methylketones observed against root knot nematode (M. incognita) inoculated into treated pots containing tomato plants. […] The listed kilograms/hectare (kg/ha) rating is based upon the surface area of the test pots; 1 kg/ha equates to about 1.65 mg compound per kilogram of soil in these assays.

[4] = test system: soybean cyst nematode (H. glycines); assay: Greenhouse whole plant assay, soybean cyst nematode infection of soybean; format: in vivo; conditions: for % Control: relative to the non-treated; for #cysts/plant: soil drench prior to inoculation, harvest 28 days, no compound added: 49
Method: as §2, §3, §4
2-tridecanone was also assayed in the greenhouse for control of soybean cyst nematode (H. glycines) in soybeans (Table 3). Nematode control (#cysts/plant) is observed at 40 kg/ha (96% control relative to the non-treated) and 8 kg/ha (80% control relative to the non-treated) when 2-tridecanone was applied as a soil drench prior to nematode inoculation.

[5] = concentration at which 30 percent of the nematodes are killed, exposure 4 hours, L1 larvae, read-out: IC30 C. elegans vs. L1
[6] = concentration at which 30 percent of the nematodes are killed, exposure 4 hours, L4 larvae, read-out: IC30 C. elegans vs. L4
[7] = concentration at which 30 percent of the nematodes are killed, exposure 24 hours, J2 larvae

Row | SMILES | IC30 [1, 5] | IC30 [1, 6] | IC30 [2, 7] | nematode control (in words) [3] | % Control ([3]; rate 8 kg/ha) | % Galled Roots ([3]; rate 8 kg/ha) | % Control ([3]; rate 40 kg/ha) | % Galled Roots ([3]; rate 40 kg/ha) | % Control ([4]; rate 8 kg/ha) | #cysts/plant ([4]; rate 8 kg/ha) | % Control ([4]; rate 40 kg/ha) | #cysts/plant ([4]; rate 40 kg/ha) | IC30 ([1]; 4 h, read-out: IC30 C. elegans vs. L1) | IC30 ([1]; 4 h, read-out: IC30 C. elegans vs. L4) | IC30 ([2]; 24 h)
1 | CCCCCCCCC(C)=O [2-decanone] | 6.3 µg/mL (≈ 40.3 µM) | > 400 µg/mL | 25 µg/mL (≈ 160 µM) |  |  |  |  |  |  |  |  |  |  |  | 
2 | CCCCCCCCCCC(C)=O [2-dodecanone] | 3.2 µg/mL (≈ 17.4 µM) | 25 µg/mL (≈ 136 µM) | 50 µg/mL (≈ 271 µM) |  |  |  |  |  |  |  |  |  |  |  | 
3 | CCCCCC(C)=O [2-heptanone] | > 400 µg/mL | > 400 µg/mL | 400 µg/mL (≈ 3500 µM) |  |  |  |  |  |  |  |  |  |  |  | 
4 | CCCCCCCC(C)=O [2-nonanone] | 12.5 µg/mL (≈ 87.9 µM) | > 400 µg/mL | 200 µg/mL (≈ 1410 µM) |  |  |  |  |  |  |  |  |  |  |  | 
5 | CCCCCCCCCCCCCC(C)=O [2-pentadecanone] | 12.5 µg/mL (≈ 55.2 µM) | > 100 µg/mL | 400 µg/mL (≈ 1770 µM) | demonstrated nematode control | 25% | 45% | 37% | 38% |  |  |  |  |  |  | 
6 | CCCCCCCCCCCCC(C)=O [2-tetradecanone] | 3.2 µg/mL (≈ 15.1 µM) | > 100 µg/mL | 25 µg/mL (≈ 118 µM) |  |  |  |  |  |  |  |  |  |  |  | 
7 | CCCCCCCCCCCC(C)=O [2-tridecanone] | 3.2 µg/mL (≈ 16.1 µM) | 12.5 µg/mL (≈ 63 µM) | 50 µg/mL (≈ 252 µM) |  | 97% | 2% | 100% | 0% | 80% | 10 | 96% | 2 |  |  | 
8 | CCCCCCCCCC(C)=O [2-undecanone] |  |  |  | demonstrated nematode control | 35% | 39% | 65% | 21% |  |  |  |  | 6.3 µg/mL (≈ 37 µM) | 25 µg/mL (≈ 147 µM) | 50 µg/mL (≈ 294 µM)

— US9006517B2, “Methods and compositions for plant pest control” (Monsanto Technology LLC, priority 2008, dated 2015)
